Source: ChEMBL document CHEMBL3779868, “Tetrahydroprotoberberine alkaloids with dopamine and σ receptor affinity” (Bioorg Med Chem, 2016)

Tests used:
D(1A) dopamine receptor = D(1A) dopamine receptor (Homo sapiens, UniProt P21728); experiment: Displacement of [3H][…] from human dopamine D1 receptor by PDSP assay
D(2) dopamine receptor [1] = biological target: T1, D(2) dopamine receptor (Homo sapiens, UniProt P14416); experiment: Displacement of [3H]N-methylspiperone from human dopamine D2 receptor by PDSP assay
D(3) dopamine receptor [2] = biological target: T2, D(3) dopamine receptor (Homo sapiens, UniProt P35462); experiment: Displacement of [3H]N-methylspiperone from human dopamine D3 receptor by PDSP assay
[3] = biological target: Sigma non-opioid intracellular receptor 1 (Homo sapiens, UniProt Q99720); experiment: Displacement of [3H](+)-pentazocine from human sigma1 receptor by PDSP assay
[4] = Displacement of [3H]DTG from human sigma2 receptor by PDSP assay
Homo sapiens [5] = organism: Homo sapiens; experiment: Selectivity ratio of Ki for human dopamine D2 receptor to human dopamine D1 receptor
Homo sapiens [6] = organism: Homo sapiens; experiment: Selectivity ratio of Ki for human dopamine D3 receptor to human dopamine D1 receptor
Homo sapiens [7] = organism: Homo sapiens; experiment: Selectivity ratio of Ki for human dopamine D2 receptor to human dopamine D3 receptor
Homo sapiens [8] = organism: Homo sapiens; experiment: Selectivity ratio of Ki for human sigma1 receptor to human sigma2 receptor
[9] = Binding affinity to sigma2 receptor (unknown origin) by PDSP assay; parameters: species or system Homo sapiens
D(3) dopamine receptor [10] = biological target: T2, D(3) dopamine receptor; experiment: Binding affinity to dopamine D3 receptor (unknown origin) by PDSP assay
MDA-MB-231 = experiment: Cytotoxicity against human MDA-MB-231 cells assessed as cell viability after 24 hrs by Alamar blue assay; assay type: functional, cell-based; settings: MDA-MB-231, 24 h
D(2) dopamine receptor [11] = biological target: T1, D(2) dopamine receptor; experiment: Displacement of [3H]N-methylspiperone from human dopamine D2 receptor at 50 uM by PDSP assay

Sequence of Sigma non-opioid intracellular receptor 1 (Q99720 whole entry): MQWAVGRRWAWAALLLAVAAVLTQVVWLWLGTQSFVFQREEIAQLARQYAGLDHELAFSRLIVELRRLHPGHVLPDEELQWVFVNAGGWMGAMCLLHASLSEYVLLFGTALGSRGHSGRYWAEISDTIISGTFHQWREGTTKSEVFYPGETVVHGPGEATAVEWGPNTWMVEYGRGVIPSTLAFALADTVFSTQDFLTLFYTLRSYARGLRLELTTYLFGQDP
T1 sequence (P14416 whole entry): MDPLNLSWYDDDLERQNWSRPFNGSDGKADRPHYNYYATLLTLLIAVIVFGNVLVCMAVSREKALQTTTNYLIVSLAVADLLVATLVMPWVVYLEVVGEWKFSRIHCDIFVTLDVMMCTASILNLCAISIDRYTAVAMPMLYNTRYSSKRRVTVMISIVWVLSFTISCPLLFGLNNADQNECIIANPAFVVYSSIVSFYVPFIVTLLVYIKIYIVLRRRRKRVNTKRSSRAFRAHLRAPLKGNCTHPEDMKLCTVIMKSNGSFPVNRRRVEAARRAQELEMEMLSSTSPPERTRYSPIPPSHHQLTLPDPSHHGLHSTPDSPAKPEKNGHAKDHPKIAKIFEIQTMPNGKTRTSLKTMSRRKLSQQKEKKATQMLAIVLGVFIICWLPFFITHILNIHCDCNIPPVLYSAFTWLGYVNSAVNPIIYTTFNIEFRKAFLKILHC
Sequence of D(1A) dopamine receptor (P21728 whole entry): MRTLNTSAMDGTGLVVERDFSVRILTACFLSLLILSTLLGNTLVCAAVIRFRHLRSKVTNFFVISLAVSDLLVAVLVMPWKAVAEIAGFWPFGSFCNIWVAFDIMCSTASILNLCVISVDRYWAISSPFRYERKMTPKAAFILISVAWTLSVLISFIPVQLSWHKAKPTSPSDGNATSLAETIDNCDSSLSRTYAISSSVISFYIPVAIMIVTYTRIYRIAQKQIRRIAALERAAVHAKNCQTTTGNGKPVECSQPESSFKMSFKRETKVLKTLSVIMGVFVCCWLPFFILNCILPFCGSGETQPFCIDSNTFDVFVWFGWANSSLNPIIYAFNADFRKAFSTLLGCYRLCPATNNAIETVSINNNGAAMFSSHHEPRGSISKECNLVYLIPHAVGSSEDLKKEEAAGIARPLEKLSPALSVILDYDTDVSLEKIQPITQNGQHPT
T2 sequence (P35462 whole entry): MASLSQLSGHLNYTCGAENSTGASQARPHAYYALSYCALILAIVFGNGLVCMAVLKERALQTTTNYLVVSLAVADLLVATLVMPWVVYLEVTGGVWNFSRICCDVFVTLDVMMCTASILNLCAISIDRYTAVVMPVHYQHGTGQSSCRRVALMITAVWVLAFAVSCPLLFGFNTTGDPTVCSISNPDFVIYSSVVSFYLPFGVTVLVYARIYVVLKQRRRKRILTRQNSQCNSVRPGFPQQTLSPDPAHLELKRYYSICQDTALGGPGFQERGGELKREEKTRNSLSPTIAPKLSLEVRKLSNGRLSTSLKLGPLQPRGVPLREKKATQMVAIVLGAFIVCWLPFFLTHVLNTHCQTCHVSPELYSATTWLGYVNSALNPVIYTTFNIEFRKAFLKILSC

Row | Compound | Ki (D(1A) dopamine receptor) | Ki (D(2) dopamine receptor [1]; read-out: Ki) | Ki (D(3) dopamine receptor [2]) | Ki [3] | Ki [4] | Ratio Ki (Homo sapiens [5]) | Ratio Ki (Homo sapiens [6]) | Ratio Ki (Homo sapiens [7]) | Ratio Ki (Homo sapiens [8]) | Ki [9] | Ki (D(3) dopamine receptor [10]) | IC50 (MDA-MB-231) | Ki (D(2) dopamine receptor [1]) | inhibition (D(2) dopamine receptor [11])
1 | CCCCCOc1ccc2c(c1OC)CN1CCc3cc(OC)c(O)cc3C1C2 (stereo unspecified) | 19 nM | 283 nM | 101 nM | 119 nM | 97 nM | 14.9 | 5.3 | 2.8 | 1.22 | – | – | – | – | –
2 | COc1cc2c(cc1O)[C@@H]1Cc3ccc(O)c(OC)c3CN1CC2 [STEPHOLIDINE] | – | – | – | – | – | – | – | – | – | 54 nM | 30 nM | – | – | –
3 | COc1cc2c(cc1O)C(C)N(Cc1cccc(O)c1OC)CC2 (stereo unspecified) | 833 nM | 1100 nM | 1370 nM | 130 nM | 301 nM | – | – | – | – | – | – | – | – | –
4 | COc1cc2c(cc1O)C1Cc3ccc(O)c(OC)c3CN1CC2 (racemic) | 5.6 nM | 116 nM | 101 nM | 269 nM | 9 nM | 20.6 | 18 | 1.1 | 30 | – | – | – | – | –
5 | CCCOc1ccc2c(c1OC)CN1CCc3cc(OC)c(O)cc3C1C2 (stereo unspecified) | 7.8 nM | 99 nM | 53 nM | 57 nM | 6.7 nM | – | – | – | – | – | – | – | – | –
6 | COc1cc2c(cc1O)C1Cc3ccc(OCC4CC4)c(OC)c3CN1CC2 (stereo unspecified) | 12 nM | – | – | 12 nM | 2.4 nM | – | – | – | – | – | – | – | – | –
7 | CCN(CCc1ccc(O)c(OC)c1)Cc1cccc(O)c1OC | > 10000 nM | > 10000 nM | 1810 nM | 350 nM | 788 nM | – | – | – | – | – | – | – | – | –
8 | COc1cc(CCN(C)Cc2cccc(O)c2OC)ccc1O | 3110 nM | > 10000 nM | 2680 nM | 122 nM | 227 nM | – | – | – | – | – | – | – | – | –
9 | COc1cc2c(cc1O)C1Cc3ccc(OC)c(OC)c3CN1CC2 (stereo unspecified) | – | – | 37 nM | – | 1 nM | – | – | – | – | – | – | 178000 nM | – | –
10 | CCOc1ccc2c(c1OC)CN1CCc3cc(OC)c(O)cc3C1C2 (stereo unspecified) | 12.4 nM | 159 nM | 44 nM | 124 nM | 1.3 nM | 12.8 | 3.5 | 3.6 | 95 | – | – | – | – | –
11 | CCCCCCOc1ccc2c(c1OC)CN1CCc3cc(OC)c(O)cc3C1C2 (stereo unspecified) | 40 nM | – | 220 nM | 37 nM | 107 nM | – | 5.5 | – | 0.35 | – | – | – | Not Active | < 50%
12 | COc1cc2c(cc1O)C1Cc3ccc(OCCCO)c(OC)c3CN1CC2 (stereo unspecified) | 6.7 nM | 211 nM | 110 nM | 53 nM | 3.8 nM | 31.5 | 16.4 | 1.9 | 13.9 | – | – | – | – | –
13 | CCCCOc1ccc2c(c1OC)CN1CCc3cc(OC)c(O)cc3C1C2 (stereo unspecified) | – | 121 nM | 65 nM | 13 nM | 49 nM | – | – | – | – | – | – | – | – | –
